Experimental data published in the Kinase Knowledgebase extract (Sharma et al. 2016).
Where “and” joins values, the source holds several entries; their conditions need not be identical. Equal values may be shown once.

Tests used:
[1] = target: PIK3CD (Human) (UniProt O00329); assay: Enzyme Assay
[2] = target: PIK3CA (human) (UniProt P42336); assay: Inhibition of PIK3CA Kinase Activity
Chain of PIK3CA (human) (P42336 whole entry, looked up): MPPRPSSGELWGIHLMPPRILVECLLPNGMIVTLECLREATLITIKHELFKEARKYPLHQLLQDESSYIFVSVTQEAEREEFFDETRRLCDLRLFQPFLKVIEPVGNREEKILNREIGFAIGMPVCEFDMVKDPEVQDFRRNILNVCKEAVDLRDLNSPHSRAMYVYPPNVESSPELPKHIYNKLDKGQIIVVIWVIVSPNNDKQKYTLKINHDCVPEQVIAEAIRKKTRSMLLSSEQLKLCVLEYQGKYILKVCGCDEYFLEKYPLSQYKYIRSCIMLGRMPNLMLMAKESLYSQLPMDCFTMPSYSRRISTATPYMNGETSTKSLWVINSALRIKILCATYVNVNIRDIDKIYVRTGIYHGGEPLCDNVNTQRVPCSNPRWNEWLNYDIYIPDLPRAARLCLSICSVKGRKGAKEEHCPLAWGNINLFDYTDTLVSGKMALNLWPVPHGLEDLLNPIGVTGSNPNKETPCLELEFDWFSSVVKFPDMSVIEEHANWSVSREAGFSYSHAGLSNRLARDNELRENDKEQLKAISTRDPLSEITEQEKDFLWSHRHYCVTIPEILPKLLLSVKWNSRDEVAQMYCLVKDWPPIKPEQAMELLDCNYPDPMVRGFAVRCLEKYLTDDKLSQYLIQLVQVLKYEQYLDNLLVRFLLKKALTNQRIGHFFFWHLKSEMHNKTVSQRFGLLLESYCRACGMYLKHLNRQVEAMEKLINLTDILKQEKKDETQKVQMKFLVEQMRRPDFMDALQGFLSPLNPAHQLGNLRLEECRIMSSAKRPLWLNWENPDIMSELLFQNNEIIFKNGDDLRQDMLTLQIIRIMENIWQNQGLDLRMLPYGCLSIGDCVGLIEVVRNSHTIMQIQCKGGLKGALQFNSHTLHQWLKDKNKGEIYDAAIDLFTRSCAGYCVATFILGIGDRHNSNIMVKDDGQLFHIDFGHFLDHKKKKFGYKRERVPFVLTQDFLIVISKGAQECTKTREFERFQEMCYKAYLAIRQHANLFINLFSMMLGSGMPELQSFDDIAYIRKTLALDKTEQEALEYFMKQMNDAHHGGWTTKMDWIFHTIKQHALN

Chain of PIK3CD (Human) (O00329 whole entry, looked up): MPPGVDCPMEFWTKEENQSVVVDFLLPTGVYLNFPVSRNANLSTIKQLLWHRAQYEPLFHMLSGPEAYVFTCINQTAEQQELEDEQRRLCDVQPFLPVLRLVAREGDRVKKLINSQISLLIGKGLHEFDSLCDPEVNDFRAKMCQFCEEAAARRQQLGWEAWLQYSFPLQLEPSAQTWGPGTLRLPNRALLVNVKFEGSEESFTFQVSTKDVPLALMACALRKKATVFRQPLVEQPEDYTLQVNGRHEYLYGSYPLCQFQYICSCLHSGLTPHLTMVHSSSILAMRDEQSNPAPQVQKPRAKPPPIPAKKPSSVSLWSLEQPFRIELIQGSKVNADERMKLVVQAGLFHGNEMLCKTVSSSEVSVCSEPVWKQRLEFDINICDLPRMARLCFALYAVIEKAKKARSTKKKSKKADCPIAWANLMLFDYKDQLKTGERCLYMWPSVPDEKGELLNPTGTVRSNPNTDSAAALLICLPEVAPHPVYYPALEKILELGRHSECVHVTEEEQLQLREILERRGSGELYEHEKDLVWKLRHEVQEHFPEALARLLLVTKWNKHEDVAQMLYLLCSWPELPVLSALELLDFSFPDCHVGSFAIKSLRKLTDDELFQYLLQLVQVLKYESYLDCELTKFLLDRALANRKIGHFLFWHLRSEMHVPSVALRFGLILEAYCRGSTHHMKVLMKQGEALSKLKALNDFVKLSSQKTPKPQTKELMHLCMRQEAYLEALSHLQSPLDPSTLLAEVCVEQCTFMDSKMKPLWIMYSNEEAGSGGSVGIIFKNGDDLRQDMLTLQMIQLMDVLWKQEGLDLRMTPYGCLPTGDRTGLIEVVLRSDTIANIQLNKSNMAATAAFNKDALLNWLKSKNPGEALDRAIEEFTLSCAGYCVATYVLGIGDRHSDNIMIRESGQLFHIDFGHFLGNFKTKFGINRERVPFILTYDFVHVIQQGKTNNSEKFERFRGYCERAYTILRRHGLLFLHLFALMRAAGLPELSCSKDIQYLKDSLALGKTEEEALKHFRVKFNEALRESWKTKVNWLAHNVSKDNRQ

Compound | IC50 [1] | IC50 [2]
Cc1nc(-c2cn3c(n2)-c2ccc(-c4cnn(C)c4C4CN(C(C)C)CCO4)cc2OCC3)n(C(C)C)n1 (configuration not stated) | 1.2 nM and 1.08 nM | 17.9 nM and 107 nM and 41.5 nM
Cc1nc(-c2cn3c(n2)-c2ccc(-c4ncnn4C4CCN(C(C)(C)C)CC4)cc2OCC3)n(C(C)C)n1 |  | 837 nM
CC(C)n1nc(N)nc1-c1cn2c(n1)-c1ccc(-c3ccnn3C3CCN(C(C)(C)C)CC3)cc1OCC2 |  | 80.9 nM
Cc1nc(-c2cn3c(n2)-c2ccc(-c4cnn(C(C)C)c4CN4CCN(C(C)(C)C)CC4)cc2OCC3)n(C(C)C)n1 |  | 111 nM
Cc1nc(-c2cn3c(n2)-c2ccc(-c4cn[nH]c4C4CCCN(C(C)C)C4)cc2OCC3)n(C(C)C)n1 (configuration not stated) |  | 22.9 nM and 7.46 nM
Cc1nc(-c2cn3c(n2)-c2ccc(N4CCCC45CCCN(C)C5)cc2OCC3)n(C(C)C)n1 (configuration not stated) |  | 12.9 nM and 5.23 nM and 16.8 nM
Cc1nc(-c2cn3c(n2)-c2cc([C@H](C)N4CCN(C(C)(C)C)CC4)ncc2OCC3)n(C(C)C)n1 |  | 217 nM
CCN(CC)C1CCOC(c2c(-c3ccc4c(c3)OCCn3cc(-c5nc(C)nn5C(C)C)nc3-4)cnn2C)C1 (configuration not stated) |  | 64.5 nM and 65.8 nM and 54.8 nM
Cc1cc2c(cc1-c1ccnn1C1CCN(C)CC1)OCCn1cc(-c3ncnn3C(C)C)nc1-2 |  | 173 nM
Cc1nc(-c2cn3c(n2)-c2ccc(-c4ccnn4C4CC(C)N(C)C(C)C4)cc2OCC3)n(C(C)C)n1 (configuration not stated) |  | 100 nM
Cc1nc(-c2cn3c(n2)-c2cc(C(=O)N4CCN(C(C)(C)C)CC4)c(F)cc2OCC3)n(C(C)C)n1 |  | 191 nM
Cc1nc(-c2cn3c(n2)-c2cc(-c4cnn(C)c4C4CCCN(C(C)C)C4)c(F)cc2OCC3)n(C(C)C)n1 (configuration not stated) |  | 20 nM and 105 nM
Cc1nc(-c2cn3c(n2)-c2cc([C@@H](C)N4CCN(C(C)C)CC4)c(C)cc2OCC3)n(C(C)C)n1 |  | 90 nM
Cc1nc(-c2cn3c(n2)-c2cc([C@H](C)N4CCN(C(C)(C)C)CC4)c(F)cc2OCC3)n(C(C)C)n1 |  | 247 nM

Further compounds by falling IC50 [2], results first:

IC50 [1] | IC50 [2] | Compound
 | 76.2 nM | Cc1nc(-c2cn3c(n2)-c2cc(C(C)N4CCN(CC(C)(C)O)CC4)c(C)cc2OCC3)n(C(C)C)n1 (configuration not stated)
 | 72.8 nM | Cc1nc(-c2cn3c(n2)-c2ccc(N4CCCC45CCCN(C(C)C)C5)cc2OCC3)n(C(C)C)n1 (configuration not stated)
 | 53.6 nM | CC(C)n1ncnc1-c1cn2c(n1)-c1cc(CN3CCN(C(C)(C)C)CC3)ccc1OCC2
 | 38.5 nM | CC(C)n1nc(N)nc1-c1cn2c(n1)-c1ccc(-c3ccnn3C3CCN(C)CC3)cc1OCC2
 | 36.7 nM | Cc1nc(-c2cn3c(n2)-c2cc(-c4ccnn4[C@@H]4CCCN(C5COC5)C4)c(F)cc2OCC3)n(C(C)C)n1
 | 28.4 nM | Cc1nc(-c2cn3c(n2)-c2ccc(-c4cn(C)nc4C4CCCN(C(C)C)C4)cc2OCC3)n(C(C)C)n1 (configuration not stated)
 | 24.1 nM | Cc1nc(-c2cn3c(n2)-c2cc([C@H](C)N4CCN(C(C)(C)C)CC4)c(C)cc2OCC3)n(C(C)C)n1
 | 22 nM | Cc1nc(-c2cn3c(n2)-c2ccc(N4CCC[C@@H]4CN4CCCC4)cc2OCC3)n(C(C)C)n1
 | 20.7 nM | Cc1nc(-c2cn3c(n2)-c2ccc(-c4cnn(C)c4[C@H]4CCCN(C(C)C)C4)cc2OCC3)n(C(C)C)n1
 | 12.9 nM | CC(C)n1ncnc1-c1cn2c(n1)-c1cnc(N3CCCC3CN3CCCC3)cc1OCC2 (configuration not stated)
 | 11.4 nM | Cc1nc(-c2cn3c(n2)-c2cc(-c4ccnn4[C@@H]4CCCN(C(C)C)C4)c(F)cc2OCC3)n(C(C)C)n1
 | 11.2 nM | Cc1nc(-c2cn3c(n2)-c2ccc(-c4cnn(C)c4C4CCCCN4CC(C)(C)O)cc2OCC3)n(C(C)C)n1 (configuration not stated)
 | 10.8 nM | Cc1nc(-c2cn3c(n2)-c2ccc(-c4ccnn4[C@@H]4CCCN(C(C)(C)CO)C4)cc2OCC3)n(C(C)C)n1
 | 9.57 nM | Cc1nc(-c2cn3c(n2)-c2cc(-c4cnn(C)c4C4CC(N(C)C)CCO4)c(F)cc2OCC3)n(C(C)C)n1 (configuration not stated)
 | 9.19 nM | Cc1nc(-c2cn3c(n2)-c2cnc(-c4cnn(C)c4C4CCCN(C(C)C)C4)cc2OCC3)n(C(C)C)n1 (configuration not stated)
 | 6.32 nM | Cc1nc(-c2cn3c(n2)-c2ccc(N4CCC[C@H]4CN4CCCC4)cc2OCC3)n(C(C)C)n1
 | 3.41 nM | Cc1nc(-c2cn3c(n2)-c2ccc(N4CCC4[C@@H]4CCCN(C(C)C)C4)cc2OCC3)n(C(C)C)n1 (some centres not stated)
